Here are results for three compounds from patent US7351693B2, “Peptides and nucleic acids of the cathelicidin family, derived from fish, and uses thereof” (priority 2002, dated 2008).

The assay has as its system trout bactenecin gene. Nature of the assay: RT-PCR analysis of trout bactenecin (cathelicidin) expression in stimulated head kidney leucocytes. The following applies: for effect on LPS-stimulated expression of trout bactenecin: added 3 h after LPS stimulation (5 μg/ml), FIG. 14. It is filed as cell-based, rainbow trout. How it is done:
Rainbow trout head kidney leucocytes were obtained by disrupting the head kidney tissue through a 100 μm nylon mesh. After washing, the leucocytes were suspended in L15 medium (Gibco) and stimulated as follows: • (A) LPS time course: Cells were stimulated with 5 μg/ml of E. coli 0127:B8 lipopolysaccharide (LPS, Sigma) for different time periods (0, 0.5 h, 1 h, 2 h, 3 h, 4 h). • (B) Transcription/translation inhibition: Streptomyces actinomycin D (Sigma) at 100 ng/ml was added to the cells after 3 h of LPS induction (5 μg/ml) to inhibit transcription. Alternatively cycloheximide at 10 μg/ml was added to the cells after 3 h of LPS stimulation (as above) to inhibit translation. • (C) Different inducers: 5 μg/ml of Phytohemagglutinin (PHA, Sigma), 25 ng/ml of Phorbol Myristate Acetate (PMA, Sigma) alone, or in combination with 5×10^−7M of Calcium Ionophore (Sigma) were added to the cells for 4 h.
At the end of the relevant time period, total RNA was isolated from approximately 2×10^7 cells, with RNAzol B (Biogenesis) according to the manufacturer's instructions. The RNA was then reverse transcribed to cDNA and the product used as template in PCRs for the trout cathelicidin gene and β-actin as a positive control. The primers used for the amplification of the cathelicidin gene were fF1 (5′-[…]-3′ SEQ ID NO: 80) and R1 (5′-[…]-3′ SEQ ID NO: 81), and for the β-actin were forward (5′-ATGGAAGATGAAATCGCC-3′ SEQ ID NO: 82) and reverse (5′-TGCCAGATCTTCTCCATG-3′ SEQ ID NO: 83). The PCR reaction mix was as follows: 5 μl of phage mix, 1.5 μl 10 mM dNTPs mix, 0.125 μl of 5 units/μl Taq DNA Polymerase, 2.5 μl 10×NH4 buffer, 0.75 μl 50 mM MgCl2, 1.5 μl forward primer, 1.5 μl reverse primer and 12.125 μl of dH2O. The cycling protocol was as follows: initial melting at 94° C. for 4 min, followed by 30 cycles of 94° C. for 45 sec, 60° C. for 45 sec, 72° C. for 1 min, with a final elongation at 72° C. for 10 min. The expected size of the products was 320 bp for the cathelicidin gene and 260 bp for β-actin.

Numbered stars: 1 amine (or outer) side, 2 acyl side, 3 side chain; on linkers, the order of the positions; unused ones are H or OH. Bridge positions count the residues as written; N and C are the ends. Square brackets hold non-standard residues; d marks the D form. Peptide text beside a SMILES is read from it. I, II: the chains in the order shown. Actinocin(9to1) = Cc1c2oc3c(C)ccc(C(=O)[*:1])c3nc-2c(C(=O)[*:2])c(N)c1=O; NMeV = CN[C@H](C(=O)O)C(C)C; Sar = CNCC(=O)O

Consider `C[C@@H]1C[C@@H]([C@H](O)CC2CC(=O)NC(=O)C2)C(=O)[C@@H](C)C1` [Cycloheximide, cycloheximide], for which the “effect on LPS-stimulated expression of trout bactenecin” value was “did not induce a superinduction”.

In the case of `CCCCCCCCCCCCCC(=O)O[C@@H]1[C@@H](C)[C@@]2(O)[C@@H](C=C(CO)C[C@]3(O)C(=O)C(C)=C[C@@H]23)[C@@H]2C(C)(C)[C@]12OC(C)=O` [PMA, Phorbol Myristate Acetate], for the setting “after 4 h of induction, FIG. 13”, the “induction of trout bactenecin expression in leucocytes” value was “only PMA+calcium ionophore induced expression”.

With `Cc1c2oc3c(C)ccc(C(=O)N[C@@H]4C(=O)N[C@H](C(C)C)C(=O)N5CCC[C@H]5C(=O)N(C)CC(=O)N(C)[C@@H](C(C)C)C(=O)O[C@@H]4C)c3nc-2c(C(=O)N[C@@H]2C(=O)N[C@H](C(C)C)C(=O)N3CCC[C@H]3C(=O)N(C)CC(=O)N(C)[C@@H](C(C)C)C(=O)O[C@@H]2C)c(N)c1=O` [actinomycin D] (I: T[dV]P[Sar][NMeV] / II: T[dV]P[Sar][NMeV]; ester I:1-I:C, II:1-II:C; linker I:N-II:N via Actinocin(9to1)), the “effect on LPS-stimulated expression of trout bactenecin” value is “inhibited completely”.
